Here are results for 6 compounds from patent publication US10695396B2, “Malignant tumor target peptide” (NATIONAL INSTITUTE OF ADVANCED INDUSTRIAL SCIENCE AND …, priority 2016, dated 2020).

Series [1] is described as follows: solubility and stability of IF7 (dosage form observations). The format is physicochemical. The protocol: That is, IF7 peptide is protease sensitive and is susceptible to degradation. Indeed, in an experiment including intravenous administration of A488-IF7 to healthy mouse, the fluorescence signal of peripheral blood almost disappeared in about 1 hour (FIG. 5). […] In addition, IF7 has high hydrophobicity and causes difficulty in dosage form such as the need for addition of a surfactant after dissolution in DMSO, in an attempt to avoid precipitation when a compound bound with an anticancer drug is intravenously administered.

The target of a further series is T1, Anxa1 (Homo sapiens, UniProt P04083).
T1 construct: human recombinant Anxa1 protein consisting of 346 amino acid residues; purchased ATGen Corporation (Seongnam-si, South Korea)
T1 sequence (P04083 1-346): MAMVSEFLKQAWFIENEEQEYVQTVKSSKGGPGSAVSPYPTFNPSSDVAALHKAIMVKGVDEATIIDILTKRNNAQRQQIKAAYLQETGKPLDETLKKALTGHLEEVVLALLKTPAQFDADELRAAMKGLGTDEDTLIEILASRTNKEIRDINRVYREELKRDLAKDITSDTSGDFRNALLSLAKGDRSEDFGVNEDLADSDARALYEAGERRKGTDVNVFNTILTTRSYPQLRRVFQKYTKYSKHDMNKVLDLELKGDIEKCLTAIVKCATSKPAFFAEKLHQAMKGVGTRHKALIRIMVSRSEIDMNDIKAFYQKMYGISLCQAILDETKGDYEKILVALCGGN
The series is described as follows: intermolecular interaction with Anxa1 measured by the QCM method. Format: binding. The procedure:
As for the peptides of the sequences of LRFPTVL (SEQ ID NO: 13), SPTSLLF (SEQ ID NO: 14), MPTLTFR (SEQ ID NO: 15) and LLSWPSA (SEQ ID NO: 17) with high emergence frequency besides the TIT7 sequence (SEQ ID NO: 12) described in Example 1, similar to the dTIT7 peptide, peptides (dLRF7, dSPT7, dMPT7 and dLLS7 peptides) composed of D-form amino acids were synthesized and the intermolecular interaction with Anxa1 was measured for each of them by the following method.
The sensor chip was washed twice with piranha solution for 5 min and then immersed overnight in a solution of 0.9 mM hydroxy-EG3-undecanethiol (Dojindo) and 0.1 mM amino-EG6-undecanethiol (Dojindo). After washing with water, the chip was treated with 1 mM GMBS (Dojindo) and incubated at room temperature for 1 hr. After washing away the remaining GMBS, 1 mM peptide solution was added onto the chip and the chip was incubated for 30 min. The peptide-bound sensor chip was placed in a QCM apparatus (Single-Q, ASONE), and 0.5 ml of PBS was added to the well. Various doses of Anxa1 were injected into the reaction chamber and the binding affinity (kd value) for each peptide was determined.

Setting [2] is: QCM, peptide-bound sensor chip, various doses of Anxa1, read-out: kd value.

Where two headings read alike, the source gives them in different places. Square brackets hold non-standard residues; d marks the D form. Peptide text beside a SMILES is read from it.

As for `CC[C@H](C)[C@H](N)C(=O)N[C@@H](Cc1ccccc1)C(=O)N[C@@H](CC(C)C)C(=O)N[C@@H](CC(C)C)C(=O)N[C@@H](Cc1c[nH]c2ccccc12)C(=O)N[C@@H](CCC(N)=O)C(=O)N[C@@H](CCCNC(=N)N)C(=O)O` [IF7, IFLLWQR] (H-IFLLWQR-OH; N-terminus and C-terminus assumed), in series [1], the solubility entry was “poor solubility”. For the same compound, the stability entry in series [1] (protease sensitivity) is given as “low stability”.

On to `CC(C)C[C@@H](N)C(=O)N[C@H](CC(C)C)C(=O)N[C@H](CO)C(=O)N[C@H](Cc1c[nH]c2ccccc12)C(=O)N1CCC[C@@H]1C(=O)N[C@H](CO)C(=O)N[C@H](C)C(=O)O` [dLLS7, L[D] L[D] S[D] W[D] P[D] S[D] A[D]] (H-[dL][dL][dS][dW][dP][dS][dA]-OH; N-terminus and C-terminus assumed), for which, at Anxa1 (setting [2]), the Kd was found to be 54.2 nM.

Turning to `CC(C)C[C@@H](N)C(=O)N[C@H](CCCNC(=N)N)C(=O)N[C@H](Cc1ccccc1)C(=O)N1CCC[C@@H]1C(=O)N[C@@H](C(=O)N[C@@H](C(=O)N[C@H](CC(C)C)C(=O)O)C(C)C)[C@H](C)O` [dLRF7, L[D] R[D] F[D] P[D] T[D] V[D] L[D]] (H-[dL][dR][dF][dP][dT][dV][dL]-OH; N-terminus and C-terminus assumed), at Anxa1 (setting [2]), the Kd worked out at 31.2 nM.

Regarding `CSCC[C@@H](N)C(=O)N1CCC[C@@H]1C(=O)N[C@@H](C(=O)N[C@H](CC(C)C)C(=O)N[C@@H](C(=O)N[C@H](Cc1ccccc1)C(=O)N[C@H](CCCNC(=N)N)C(=O)O)[C@H](C)O)[C@H](C)O` [dMPT7, M[D] P[D] T[D] L[D] T[D] F[D] R[D]] (H-[dM][dP][dT][dL][dT][dF][dR]-OH; N-terminus and C-terminus assumed), the Kd at Anxa1 (setting [2]) worked out at 298 nM.

Turning to `CC(C)C[C@@H](NC(=O)[C@@H](CC(C)C)NC(=O)[C@@H](CO)NC(=O)[C@H](NC(=O)[C@H]1CCCN1C(=O)[C@H](N)CO)[C@H](C)O)C(=O)N[C@H](Cc1ccccc1)C(=O)O` [dSPT7, S[D] P[D] T[D] S[D] L[D] L[D] F[D]] (H-[dS][dP][dT][dS][dL][dL][dF]-OH; N-terminus and C-terminus assumed), the Kd on Anxa1 (setting [2]) worked out at 90.3 nM.

For the compound `CC[C@@H](C)[C@@H](NC(=O)[C@H](N)[C@H](C)O)C(=O)N[C@@H](C(=O)N[C@H](Cc1c[nH]c2ccccc12)C(=O)N1CCC[C@@H]1C(=O)N[C@@H](C(=O)N[C@H](CCSC)C(=O)O)[C@H](C)O)[C@H](C)O` [dTIT7, T[D] I[D] T[D] W[D] P[D] T[D] M[D]], at Anxa1 (QCM method, dTIT7 and Anxa1, read-out: dissociation constant (Kd value)), the Kd is 45.7 nM.

Broadly, the Kd is the concentration at which binding is half-saturated.
